Laboratory results from patent US5801182A, “Amine substituted compounds” (Cell Therapeutics, Inc., priority 1995, dated 1998).
Where two headings read alike, the source gives them in different places.

Experiments:
[1] = test system: polymorphonuclear leukocytes; conditions: U.S. Pat. No. 4,636,507; cited from earlier work
[2] = test system: PAPH; experiment: PAPH inhibition / DAG production in TNF-stimulated human mesangial cells; format: cell-based; conditions: specific activation pathway that does not involve PI
Excerpt: These inventive compounds and pharmaceutical compositions are capable of, among other things, inhibiting subspecies of LPAAT and PAPH enzymes with substrate specificity for intermediates with 1,2-diunsaturated and 1-alkyl, 2-unsaturated subspecies. […] In contrast, the inventive compounds affect that subset of PAPH and LPAAT relating to substrates with unsaturated fatty acids other than arachidonate in the sn-2 position, not the housekeeping forms of these enzymes that serve the PI pathway.

[3] = test system: tumor necrosis factor, TNF; conditions: cited from earlier work
[4] = test system: CFU-GM in mouse femoral marrow; conditions: in vivo
Excerpt: Mouse spleen conditioned-medium, at a concentration of 2%, was used in this assay. The medium and semi-solid culture mix were procured from Stem Cell Technologies in Vancouver, BC.

SMILES | chemotaxis in polymorphonuclear leukocytes [1] | inhibition of PAPH [2] | BMT-related complications ([3]; co-administered PTX and GM-CSF, allogeneic bone marrow transplant patients) | TNF levels ([3]; co-administered PTX and GM-CSF, patients undergoing allogeneic bone marrow transplant) | TNF levels ([3]; normal volunteers) | CFU-GM in mouse femoral marrow [4]
CC(O)CCCCn1c(=O)c2c(ncn2C)n(C)c1=O (stereo not shown) [M1, 1-(5-hydroxyhexyl)-3,7-dimethylxanthine] | enhance chemotaxis |  |  |  |  | 
CC(=O)CCCCn1c(=O)c2c(ncn2C)n(C)c1=O [PTX, 1-(5-oxohexyl)-3,7-dimethylxanthine] | enhance chemotaxis | blocks PAPH | reduced BMT-related complications | decreased levels of tumor necrosis factor, TNF | TNF levels were higher | 
O=c1[nH]cc(F)c(=O)[nH]1 [5-fluorouracil] |  |  |  |  |  | no CFU-GM were detectable
